pIC50: −log10 of the molar value. Activity calls are given as the source filed them. The calls are words filed in the database; no cut-off is given here.
How the values were obtained:
[1] = system: BaF3; test: Induction of apoptosis in mouse BaF3 cells harboring EGFR L858R/T790M/C797S mutant assessed as increase in green fluorescence at 10 to 25 nM by TUNNEL method; format: functional, cell-based; settings: dose 10-25 nM
[2] = system: BaF3; test: Inhibition of fibronectin activation in mouse BaF3 cells allografted in nude mouse at 50 mg/kg, po for 7 days; format: functional, organism-based; settings: time 7.0 day
[3] = system: BaF3; test: Induction of apoptosis in mouse BaF3 cells harboring EGFR L858R/T790M/C797S mutant assessed as late apoptotic cells at 10 nM incubated for 24 hrs by Annexin V-FITC/PI staining based flow cytometry (reference value: 0.02 %); format: functional
[4] = system: NCI-H1975; test: Inhibition of cell migration in human NCI-H1975 cells by transwell assay; format: functional, cell-based
[5] = system: BaF3; test: Antitumor activity against mouse BaF3 cells allografted in nude mouse assessed as reduction of tumor volume at 50 mg/kg, po measured after 2 to 7 days; format: functional, organism-based; settings: time 2-7 day
[6] = system: BaF3; test: Inhibition of EGFR L858R/T790M/C797S mutant in mouse BaF3 cells assessed as reduction in ERK phosphorylation incubated for 24 hrs by Western blot analysis; format: cell-based; settings: dose <= 100.0 nM
[7] = biological target: Vascular endothelial growth factor receptor 2 (Homo sapiens) (UniProt P35968); test: Binding affinity to KDR (unknown origin) at 100 nM by kinase profiling analysis
[8] = system: BaF3; test: Antiproliferative activity against mouse BaF3 cells harboring EGFR C797S/L858R/T790M mutant; format: functional, cell-based
[9] = Toxicity in nude mouse allografted with mouse BaF3 cells assessed as damage in liver at 50 mg/kg, po for 7 days by H and E staining based analysis; format: organism-based; settings: in vivo, 168 h, time 7 day
[10] = system: BaF3; test: Inhibition of EGFR L858R/T790M/C797S mutant phosphorylation in mouse BaF3 cells assessed as reduction in red fluorescence incubated for 24 hrs by immunofluorescence analysis; format: cell-based
[11] = Toxicity in nude mouse allografted with mouse BaF3 cells assessed as lesion in heart at 50 mg/kg, po for 7 days by H and E staining based analysis; format: organism-based; settings: in vivo, 168 h, time 7 day
[12] = system: BaF3; test: Antiproliferative activity against mouse BaF3 cells harboring EGFR C797S/Del19/T790M mutant; format: functional, cell-based
[13] = system: BaF3; test: Inhibition of neovascularization in mouse BaF3 cells allografted in nude mouse at 50 mg/kg, po for 7 days; format: functional, organism-based; settings: time 7.0 day
[14] = Cytotoxicity against human HK-2 cells; format: toxicity, cell-based
[15] = biological target: T1, Epidermal growth factor receptor (Homo sapiens, UniProt P00533); test: Inhibition of wild-type EGFR (unknown origin)
[16] = system: BaF3; test: Antitumor activity against mouse BaF3 cells allografted in nude mouse at 50 mg/kg, po measured for 7 days relative to control; format: functional; settings: BaF3, 168 h, time 7 day, read-out: TGI
[17] = system: BaF3; test: Induction of apoptosis in mouse BaF3 cells harboring EGFR L858R/T790M/C797S mutant assessed as early apoptotic cells at 10 nM incubated for 24 hrs by Annexin V-FITC/PI staining based flow cytometry (reference value: 0.15 %); format: functional
[18] = Toxicity in nude mouse allografted with mouse BaF3 cells assessed as lesion in liver at 50 mg/kg, po for 7 days by H and E staining based analysis; format: organism-based; settings: in vivo, 168 h, time 7 day
[19] = system: BaF3; test: Induction of apoptosis in mouse BaF3 cells harboring EGFR L858R/T790M/C797S mutant assessed as necrotic cells at 10 nM incubated for 24 hrs by Annexin V-FITC/PI staining based flow cytometry (reference value: 0.06 %); format: functional
[20] = Toxicity in nude mouse allografted with mouse BaF3 cells assessed as body weight loss at 50 mg/kg, po measured for 7 days; format: organism-based; settings: in vivo, 168 h, time 7 day
[21] = Toxicity in nude mouse allografted with mouse BaF3 cells assessed as damage in kidney at 50 mg/kg, po for 7 days by H and E staining based analysis; format: organism-based; settings: in vivo, 168 h, time 7 day
[22] = biological target: Epidermal growth factor receptor (Homo sapiens, UniProt P00533, L858R/T790M); test: Inhibition of EGFR T790M/L858R mutant (unknown origin)
[23] = system: NCI-H1975; test: Antitumor activity against human NCI-H1975 cells xenografted in nude mouse at 50 mg/kg, po measured for 7 days relative to control; format: functional; settings: NCI-H1975, 168 h, time 7 day, read-out: TGI
[24] = system: BaF3; test: Antiproliferative activity against mouse BaF3 cells harboring EGFR L858R/T790M/C797S mutant assessed as inhibition of sphere formation incubated for 72 hrs by CCK8 assay; format: functional, cell-based; settings: BaF3, 72 h
[25] = Toxicity in nude mouse allografted with mouse BaF3 cells assessed as damage in lung at 50 mg/kg, po for 7 days by H and E staining based analysis; format: organism-based; settings: in vivo, 168 h, time 7 day
[26] = Cytotoxicity against VEGF-stimulated human HUVEC cells; format: toxicity, cell-based
[27] = Cytotoxicity against human L02 cells; format: toxicity, cell-based
[28] = system: BaF3; test: Inhibition of cell invasion in mouse BaF3 cells harboring EGFR L858R/T790M/C797S mutant by transwell assay; format: functional, cell-based
[29] = system: NCI-H1975; test: Inhibition of cell migration in human NCI-H1975 cells at 10 nM incubated for 24 hrs by scratch healing assay relative to control; format: functional
[30] = Toxicity in nude mouse allografted with mouse BaF3 cells assessed as lesion in spleen at 50 mg/kg, po for 7 days by H and E staining based analysis; format: organism-based; settings: in vivo, 168 h, time 7 day
[31] = system: NCI-H1975; test: Inhibition of fibronectin activation in human NCI-H1975 cells xenografted in nude mouse at 50 mg/kg, po for 7 days by IHC analysis; format: functional, organism-based; settings: time 7.0 day
[32] = system: NCI-H1975; test: Antiproliferative activity against human NCI-H1975 cells assessed as inhibition of sphere formation incubated for 72 hrs by CCK8 assay; format: functional, cell-based; settings: NCI-H1975, 72 h
[33] = Cytotoxicity against human HaCaT cells; format: toxicity, cell-based
[34] = system: BaF3; test: Induction of cell death in outer layer of cell spheres of mouse BaF3 cells harboring EGFR L858R/T790M/C797S mutant at 1 nM by Calcein AM/PI staining based analysis; format: functional
[35] = Toxicity in nude mouse allografted with mouse BaF3 cells assessed as animal abnormality at 50 mg/kg, po measured for 7 days; format: organism-based; settings: in vivo, 168 h, time 7 day
[36] = system: BaF3; test: Induction of cell death in inner region of cell spheres of mouse BaF3 cells harboring EGFR L858R/T790M/C797S mutant at 10 nM by Calcein AM/PI staining based analysis; format: functional
[37] = system: BaF3; test: Inhibition of EGFR L858R/T790M/C797S mutant in mouse BaF3 cells assessed as reduction in AKT phosphorylation incubated for 24 hrs by Western blot analysis; format: cell-based; settings: dose <= 100.0 nM
[38] = biological target: T1, Epidermal growth factor receptor; test: Inhibition of EGFR phosphorylation in human NCI-H1975 cells assessed as reduction in red fluorescence incubated for 24 hrs by immunofluorescence analysis; format: cell-based
[39] = system: BaF3; test: Antitumor activity against mouse BaF3 cells allografted in nude mouse assessed as reduction of tumor weight at 50 mg/kg, po measured for 7 days; format: functional, organism-based; settings: time 7.0 day
[40] = biological target: Epidermal growth factor receptor (Homo sapiens, UniProt P00533, C797S/EX19DEL/T790M); test: Inhibition of EGFR C797S/T790M/Del19 mutant (unknown origin)
Epidermal growth factor receptor (Homo sapiens, UniProt P00533, C797S/EX19DEL/T790M), sequence (P00533 whole entry, looked up, stated change not applied): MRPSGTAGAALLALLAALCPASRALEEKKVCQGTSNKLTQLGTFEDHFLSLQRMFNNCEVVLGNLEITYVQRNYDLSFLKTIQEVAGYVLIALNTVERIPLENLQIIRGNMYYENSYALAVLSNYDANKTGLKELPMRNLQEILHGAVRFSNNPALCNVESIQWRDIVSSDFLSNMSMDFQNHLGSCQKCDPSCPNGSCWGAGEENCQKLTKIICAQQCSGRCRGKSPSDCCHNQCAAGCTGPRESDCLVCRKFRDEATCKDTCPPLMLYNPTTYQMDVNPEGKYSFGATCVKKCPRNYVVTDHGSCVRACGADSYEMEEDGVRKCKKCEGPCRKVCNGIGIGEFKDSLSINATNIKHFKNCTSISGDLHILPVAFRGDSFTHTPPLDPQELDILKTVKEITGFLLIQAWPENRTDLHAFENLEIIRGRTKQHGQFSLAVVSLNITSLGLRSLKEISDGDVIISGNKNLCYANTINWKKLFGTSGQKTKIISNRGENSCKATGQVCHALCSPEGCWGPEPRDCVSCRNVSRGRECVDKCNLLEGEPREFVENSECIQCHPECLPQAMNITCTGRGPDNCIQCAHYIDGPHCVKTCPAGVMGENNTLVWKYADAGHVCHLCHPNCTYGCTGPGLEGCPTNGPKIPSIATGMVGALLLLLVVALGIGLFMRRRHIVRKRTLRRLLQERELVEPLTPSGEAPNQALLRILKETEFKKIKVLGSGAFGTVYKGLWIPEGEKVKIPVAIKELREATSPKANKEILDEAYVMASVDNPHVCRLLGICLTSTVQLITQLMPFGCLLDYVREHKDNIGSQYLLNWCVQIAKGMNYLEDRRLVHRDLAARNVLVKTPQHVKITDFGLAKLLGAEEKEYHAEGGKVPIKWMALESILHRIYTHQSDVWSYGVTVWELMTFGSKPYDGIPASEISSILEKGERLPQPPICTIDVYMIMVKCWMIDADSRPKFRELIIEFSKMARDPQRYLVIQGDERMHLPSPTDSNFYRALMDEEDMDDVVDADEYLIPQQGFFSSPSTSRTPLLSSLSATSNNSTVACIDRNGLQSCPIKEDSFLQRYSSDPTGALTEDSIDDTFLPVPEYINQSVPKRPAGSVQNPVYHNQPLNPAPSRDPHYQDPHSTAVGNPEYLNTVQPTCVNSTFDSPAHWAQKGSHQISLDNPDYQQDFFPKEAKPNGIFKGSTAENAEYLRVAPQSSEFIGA

T1 sequence (P00533 whole entry): as the sequence (P00533 whole entry, looked up, stated change not applied) above
Epidermal growth factor receptor (Homo sapiens, UniProt P00533, L858R/T790M), sequence (P00533 25-1210 T790M/L858R limits assumed): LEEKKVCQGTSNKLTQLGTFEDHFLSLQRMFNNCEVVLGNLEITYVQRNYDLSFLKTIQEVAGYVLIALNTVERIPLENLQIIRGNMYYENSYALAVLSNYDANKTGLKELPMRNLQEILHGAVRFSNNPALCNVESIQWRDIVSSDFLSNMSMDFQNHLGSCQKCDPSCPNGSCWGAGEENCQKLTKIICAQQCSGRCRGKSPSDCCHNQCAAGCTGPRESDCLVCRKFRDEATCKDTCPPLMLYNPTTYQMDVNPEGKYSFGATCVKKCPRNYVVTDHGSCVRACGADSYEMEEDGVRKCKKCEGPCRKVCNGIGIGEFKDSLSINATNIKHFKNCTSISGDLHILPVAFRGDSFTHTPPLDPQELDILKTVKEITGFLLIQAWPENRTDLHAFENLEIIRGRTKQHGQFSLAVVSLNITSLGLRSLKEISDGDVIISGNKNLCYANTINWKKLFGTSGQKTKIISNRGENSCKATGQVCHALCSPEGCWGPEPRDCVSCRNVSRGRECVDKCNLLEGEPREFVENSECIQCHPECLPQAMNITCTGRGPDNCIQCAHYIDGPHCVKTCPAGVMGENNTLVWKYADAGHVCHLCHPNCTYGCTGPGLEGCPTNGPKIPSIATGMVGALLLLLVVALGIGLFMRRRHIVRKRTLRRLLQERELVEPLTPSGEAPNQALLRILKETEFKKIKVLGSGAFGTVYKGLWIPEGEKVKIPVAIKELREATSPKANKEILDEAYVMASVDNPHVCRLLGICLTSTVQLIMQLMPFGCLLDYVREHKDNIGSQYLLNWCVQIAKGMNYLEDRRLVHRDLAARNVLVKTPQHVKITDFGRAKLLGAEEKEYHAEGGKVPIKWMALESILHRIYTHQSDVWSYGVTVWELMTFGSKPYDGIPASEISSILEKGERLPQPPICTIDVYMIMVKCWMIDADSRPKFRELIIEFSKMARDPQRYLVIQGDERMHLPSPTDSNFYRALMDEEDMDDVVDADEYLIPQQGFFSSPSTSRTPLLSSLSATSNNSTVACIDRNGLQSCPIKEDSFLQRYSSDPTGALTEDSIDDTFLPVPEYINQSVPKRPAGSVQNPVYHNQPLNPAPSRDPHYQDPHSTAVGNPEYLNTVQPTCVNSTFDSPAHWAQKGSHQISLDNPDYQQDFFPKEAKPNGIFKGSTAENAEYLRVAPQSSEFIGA
Vascular endothelial growth factor receptor 2 (Homo sapiens), sequence (P35968 whole entry): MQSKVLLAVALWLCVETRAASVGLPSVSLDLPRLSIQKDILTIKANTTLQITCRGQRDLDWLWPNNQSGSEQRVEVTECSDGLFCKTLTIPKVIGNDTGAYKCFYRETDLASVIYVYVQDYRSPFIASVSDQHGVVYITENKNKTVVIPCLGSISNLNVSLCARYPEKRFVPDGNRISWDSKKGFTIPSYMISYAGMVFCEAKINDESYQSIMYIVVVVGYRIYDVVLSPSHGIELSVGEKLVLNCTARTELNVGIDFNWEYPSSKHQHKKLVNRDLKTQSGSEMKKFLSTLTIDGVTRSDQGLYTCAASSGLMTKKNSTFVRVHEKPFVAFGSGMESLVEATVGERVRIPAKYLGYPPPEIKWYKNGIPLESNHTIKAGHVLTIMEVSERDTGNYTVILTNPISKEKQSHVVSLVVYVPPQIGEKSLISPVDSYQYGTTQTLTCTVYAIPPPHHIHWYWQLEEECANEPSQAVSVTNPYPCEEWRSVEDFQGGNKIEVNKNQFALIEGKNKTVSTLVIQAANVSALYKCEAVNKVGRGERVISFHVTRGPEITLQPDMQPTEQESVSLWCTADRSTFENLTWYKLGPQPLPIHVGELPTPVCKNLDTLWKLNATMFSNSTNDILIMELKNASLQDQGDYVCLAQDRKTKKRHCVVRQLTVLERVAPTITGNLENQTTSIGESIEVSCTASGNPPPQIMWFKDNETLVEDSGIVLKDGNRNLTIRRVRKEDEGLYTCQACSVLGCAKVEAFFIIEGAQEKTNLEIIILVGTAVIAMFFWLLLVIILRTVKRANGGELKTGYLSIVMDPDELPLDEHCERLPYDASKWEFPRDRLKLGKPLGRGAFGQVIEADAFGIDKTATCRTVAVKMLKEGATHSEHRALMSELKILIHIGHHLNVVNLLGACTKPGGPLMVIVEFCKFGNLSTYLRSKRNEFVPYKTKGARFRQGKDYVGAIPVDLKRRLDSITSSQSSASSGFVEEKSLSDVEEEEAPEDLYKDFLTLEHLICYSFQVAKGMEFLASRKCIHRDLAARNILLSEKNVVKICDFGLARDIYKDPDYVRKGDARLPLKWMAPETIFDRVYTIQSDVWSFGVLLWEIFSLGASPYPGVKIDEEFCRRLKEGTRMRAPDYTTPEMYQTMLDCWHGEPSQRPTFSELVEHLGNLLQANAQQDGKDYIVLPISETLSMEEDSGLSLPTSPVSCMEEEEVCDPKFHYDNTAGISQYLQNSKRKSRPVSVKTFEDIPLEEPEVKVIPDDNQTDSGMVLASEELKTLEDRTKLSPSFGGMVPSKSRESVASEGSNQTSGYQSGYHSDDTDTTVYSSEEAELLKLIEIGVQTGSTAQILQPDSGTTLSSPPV

CN1CCCN(c2ccc(Nc3ncc(Br)c(Nc4ccccc4NS(=O)(=O)C4CC4)n3)cc2)CC1
Activity [1]: Active
inhibition [2]: Active
Activity [3]: 69.42%
inhibition [4]: Active
Activity [5]: Active
inhibition [6]: Dose-Dependent Effect
Activity [7]: Active
pIC50 [8]: 8.40
Activity [9]: Non-Toxic
inhibition [10]: Active
Activity [11]: Non-Toxic
pIC50 [12]: 8.52
inhibition [13]: Active
pIC50 [14]: 5.56
pIC50 [15]: 7.15
inhibition in vivo at 50 mg/kg [16]: 71.2%
Activity [17]: 9.36%
Activity [18]: Non-Toxic
Activity [19]: 0.48%
Activity [20]: Non-Toxic
Activity [21]: Non-Toxic
pIC50 [22]: 8.32
inhibition in vivo at 50 mg/kg [23]: 83.5%
pIC50 [24]: 7.95
Activity [25]: Non-Toxic
pIC50 [26]: 6.10
pIC50 [27]: 5.36
inhibition [28]: Active
inhibition at 0.01 µM [29]: 92%
Activity [30]: Non-Toxic
inhibition [31]: Active
pIC50 [32]: 7.47
pIC50 [33]: 5.27
Activity [34]: Active
Activity [35]: Non-Toxic
Activity [36]: Active
inhibition [37]: Dose-Dependent Effect
inhibition [38]: Active
Activity [39]: Active
pIC50 [40]: 9.38

From ChEMBL document CHEMBL5579839, “Discovery of new cyclopropane sulfonamide derivatives as EGFR inhibitors to overcome C797S-mediated resistance and EGFR double mutation” (Eur J Med Chem, 2024)
